# According to PubChem BioAssay (NCI):
# Several values for one entry are separate records, joined by “and”; a condition that tells them apart may be missing. Equal values may be shown once.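 Briefly, cells in 96-well plates were exposed to five compound concentrations for 48 h, and endpoints were estimated by linear interpolation. GI50: concentration for 50% inhibition of growth. TGI denotes the concentration required for complete inhibition of growth.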
# What was measured:
# [1] = system: P388/ADR leukemia; test: NCI tumour cell line growth inhibition, 48 h
# [2] = system: SN12K1 renal; test: NCI tumour cell line growth inhibition, 48 h
smiles,measurement,setting,value
Cc1[nH]c(=O)[nH]c(=O)c1N(CCF)CCCl,GI50,[1],242 µM
same,TGI,[1],557 µM and 1110 µM
same,GI50,[2],187 µM
same,TGI,[2],513 µM and 703 µM and 657 µM
